What was measured:
[1] = system: normal human epidermal melanocytes (line M99-1H6); experiment: Intracellular melanin content of UVB-stimulated human cultured melanocytes; type: cell-based; conditions: With UV; for PA (pigmenting activity): vs irradiated control
Procedure: In order to evaluate the activity on pigmentation, an in vitro experiment, based on the measurement of intracellular melanin content of human cultured melanocytes exposed (UVB-stimulated) or not exposed to radiation, in the absence and in the presence of the test compound, was conducted. […] Normal human epidermal melanocytes from newborn foreskin were cultured at […] in MGM “serum free” medium (Melanocyte Growth Medium, PromoCell®) supplemented with antibiotics. Cultures were maintained at 37° C. in a humidified 5% CO2 atmosphere. Subcultures of human melanocytes were propaged in MGM medium and used just before reaching confluence. Cells were counted and diluted to the desired concentration in culture medium without calf serum. The cultured melanocytes were placed in 24-well plates at a density of 60×10^3 cells per well. Two plates were seeded with cells: one for the measurement of melanin content (“Melanin plate”) and the other for the measurement of cell densities (“Neutral Red” plate). […] Cells were incubated at 37° C., in a 95% air-5% CO2 atmosphere for eight days. During this period cells were exposed to UVB radiation at day 1 (D1), day 2 (D2), day 3 (D3), day 4 (D4), day 7 (D7) and day 8 (D8). UVB radiation exposure was carried out with a parallel bank of T[…]/12 tubes emitting a continuous spectrum between 280 and 320 nm with a peak emission at 312 nm. A UVB dose of 40 mJ/cm^2 was applied at each exposure. Sham-control cells were subjected to the same procedure, but without UV exposure and without treatment. Before exposure, cell monolayers were washed with pre-warmed Phosphate Buffer Solution (PBS) and then exposed to UVB in the presence of PBS (without test product). Immediately after irradiation PBS was replaced by fresh test medium. After treatment the culture medium was removed. The cells were washed with PBS at pH 6.8 and melanin was extracted by adding NaOH-DMSO solution. Melanin extracts were heated at 80° C. for 2 hours. After cooling, aliquots were added in 96-well microplates. Optical density (OD 450 nm) was recorded at 450 nm with a microplate reader (Dynatech MR 5000). Synthetic melanin standards (Sigma) were incubated at the same conditions. This standard curve allowed the transformation of OD 450 nm into the Melanin Unit Equivalent in each well. Melanin content was measured by absorbance at […] in control and treated melanin extracts. Results were expressed as μg melanin per well determined from the standard curve: DO(450 nm)=f([melanin]). Intracellular melanin content was measured on human normal melanocytes (line […]-1H6) after the formerly described treatment and UVB exposures of cultures. […] The melanin content (μg of melanin per well) was corrected by the cellular density of each respective culture (number of cells per well) in order to express the “Pigmentation level” of cells (expressed in pg melanin/cell). The pigmenting activity (PA) of the test product was calculated according the formula: [formula]

mushroom tyrosinase = conditions: enzymatic mushroom tyrosinase assay, literature; cited from earlier work

O=c1cc(-c2ccc(O)c(O)c2)oc2cc(O)cc(O)c12 [Luteolin, 3′,4′,5,7-Tetrahydroxyflavone]
Melanin content ([1]; 1 μg/ml): 57.56 +/− 0.0 pg melanin/well
PA (pigmenting activity) ([1]; 1 μg/ml): −22% (p < 0.01)
Melanin content ([1]; 5 μg/ml): 55.57 +/− 0.0 pg melanin/well
PA (pigmenting activity) ([1]; 5 μg/ml): −25% (p < 0.01)
Melanin content ([1]; 10 μg/ml): 54.84 +/− 1.56 pg melanin/well
PA (pigmenting activity) ([1]; 10 μg/ml): −26% (p < 0.01)

C[C@@H]1O[C@@H](O[C@@H]2[C@@H](O)[C@H](OCCc3ccc(O)c(O)c3)O[C@H](CO)[C@H]2OC(=O)/C=C/c2ccc(O)c(O)c2)[C@H](O)[C@H](O)[C@H]1O [Verbascoside, 2-(3′,4′-dihydroxyphenyl)ethyl-O-α-1-rhamnopyranosyl-(1→3)-β-d-(4-O-caffeoyl)-glucopyranoside]
PA (pigmenting activity) ([1]; 10 μg/ml): −20% (p < 0.01)
Melanin content ([1]; 50 μg/ml): 58.32 +/− 4.44 pg melanin/well
PA (pigmenting activity) ([1]; 50 μg/ml): −21% (p < 0.01)
Melanin content ([1]; 100 μg/ml): 57.80 +/− 1.63 pg melanin/well
PA (pigmenting activity) ([1]; 100 μg/ml): −22% (p < 0.01)

OCC1O[C@@H](Oc2ccc(O)cc2)C(O)C(O)[C@@H]1O (stereo partly drawn) [arbutin, hydroquinone β-d-glucopyranoside]
anti-tyrosinase IC50 (mushroom tyrosinase): about 100 μg/ml

Source: patent US20090028969A1, “Compostion for treating skin” (priority 2006, published 2009)
